Reference: patent US9975903B2, “Condensed heterocyclic compound” (Takeda Pharmaceutical Company Limited, priority 2014, dated 2018)
Where a name gives a salt, the structure may show the parent alone.

Target: T1, Human recombinant enteropeptidase (Homo sapiens, UniProt P98073)
T1 construct: purchased ITSI-Biosciences LLC #REN-260
Assay: Human enteropeptidase inhibitory activity (Test Example 1)
Assay type: biochemical
Conditions: 3.3 μM test compound, inhibition rate from fluorescence intensity at 2 hours after the start of the reaction; for inhibition at 3.3 µM: read-out: 3.3 μM Inhibition
Method in brief: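 Recombinant human enteropeptidase in 50 mM Tricine pH 8.0, 0.01% Tween 20, 10 mM CaCl2, with a 5FAM/CPQ2-quenched peptide substrate (2.1 μM solution before mixing). Compound came from 1 mM DMSO stock diluted 100-fold in buffer. Fluorescence (ex 485/em 535 nm) at 2 h gave % inhibition versus no-compound and no-enzyme controls.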

T1 sequence (P98073 whole entry): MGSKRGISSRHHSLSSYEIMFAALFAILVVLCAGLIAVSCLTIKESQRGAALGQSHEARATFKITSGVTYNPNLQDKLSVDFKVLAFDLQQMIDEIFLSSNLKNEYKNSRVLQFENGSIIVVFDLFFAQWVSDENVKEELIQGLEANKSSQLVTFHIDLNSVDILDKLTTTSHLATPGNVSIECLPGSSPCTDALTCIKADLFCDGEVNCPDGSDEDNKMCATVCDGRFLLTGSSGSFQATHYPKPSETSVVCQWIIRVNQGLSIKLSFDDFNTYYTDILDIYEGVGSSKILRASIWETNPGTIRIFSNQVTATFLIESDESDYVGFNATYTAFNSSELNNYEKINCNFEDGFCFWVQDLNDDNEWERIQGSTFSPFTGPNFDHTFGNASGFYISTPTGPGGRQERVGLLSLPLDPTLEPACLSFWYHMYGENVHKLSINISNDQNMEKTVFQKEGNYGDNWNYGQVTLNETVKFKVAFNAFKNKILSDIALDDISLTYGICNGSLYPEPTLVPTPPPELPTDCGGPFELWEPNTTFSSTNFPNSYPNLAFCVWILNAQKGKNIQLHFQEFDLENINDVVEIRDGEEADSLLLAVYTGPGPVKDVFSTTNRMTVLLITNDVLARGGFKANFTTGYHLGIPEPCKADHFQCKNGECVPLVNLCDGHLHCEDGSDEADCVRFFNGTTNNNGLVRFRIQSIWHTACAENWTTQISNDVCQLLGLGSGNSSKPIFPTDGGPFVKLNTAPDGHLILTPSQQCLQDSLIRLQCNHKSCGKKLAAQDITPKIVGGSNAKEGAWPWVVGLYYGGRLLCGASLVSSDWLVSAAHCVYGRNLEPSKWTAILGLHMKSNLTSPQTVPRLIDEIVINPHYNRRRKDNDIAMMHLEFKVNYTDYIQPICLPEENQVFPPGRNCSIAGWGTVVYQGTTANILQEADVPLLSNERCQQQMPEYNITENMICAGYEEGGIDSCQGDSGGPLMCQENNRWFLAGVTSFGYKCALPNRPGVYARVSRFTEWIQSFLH

Row | Molecule | inhibition at 3.3 µM | 3.3 μM Inhibition
1 | N=C(N)Nc1ccc2c(c1)CCc1ccccc1OC2=O [Example 58, 1-(6-Oxo-11,12-dihydro-6H-dibenzo[b,f]oxocin-9-yl)guanidine trifluoroacetate] | 55% | –
2 | N=C(N)Nc1ccc2c(c1)CCCOc1c(cccc1C(=O)N(CCC(=O)O)CC(=O)O)OC2=O [Example 64, N-((10-carbamimidamido-13-oxo-6,7,8,13-tetrahydro-dibenzo[b,f] [1,4]dioxecin-4-yl)carbonyl)-N-(carboxymethyl)-beta-alanine] | 101% | –
3 | N#Cc1cc2c(c(C(=O)N[C@@H](CC(=O)O)C(=O)O)c1)OCCCc1cc(NC(=N)N)ccc1C(=O)O2 [Example 114, N-((10-Carbamimidamido-2-cyano-13-oxo-6,7,8,13-tetrahydrodibenzo[b,f][1,4]dioxecin-4-yl)carbonyl)-L-aspartic acid] | 99% | –
4 | N=C(N)Nc1ccc2c(c1)CCCCc1c(OCC(=O)N[C@@H](CC(=O)O)C(=O)O)cccc1OC2=O [Example 31, N-(((3-carbamimidamido-14-oxo-5,7,8,14-tetrahydro-6H-dibenzo[b,h]oxecin-9-yl)oxy)acetyl)-L-aspartic acid] | 101% | –
5 | N=C(N)Nc1ccc2c(c1)CCCOc1c(cccc1C(=O)NCS(=O)(=O)O)OC2=O [Example 27, (((10-carbamimidamido-13-oxo-6,7,8,13-tetrahydro-dibenzo[b,f] [1,4]dioxecin-4-yl)carbonyl)amino) methanesulfonic acid] | 102% | –
6 | N=C(N)Nc1ccc2c(c1)CCCOc1c(ccc(CCC(=O)O)c1C(=O)O)OC2=O [Example 111, 10-carbamimidamido-3-(2-carboxyethyl)-13-oxo-6,7,8,13-tetrahydro-dibenzo[b,f] [1,4]dioxecine-4-carboxylic acid] | 100% | –
7 | N=C(N)Nc1ccc2c(c1)CCCCc1c(cccc1C(=O)N[C@@H](CC(=O)O)C(=O)O)OC2=O [Example 37, N-((3-Carbamimidamido-14-oxo-5,7,8,14-tetrahydro-6H-dibenzo[b,h]oxecin-9-yl)carbonyl)-L-aspartic acid] | 101% | –
8 | N=C(N)Nc1ccc2c(c1)CCCOc1c(cccc1C(=O)N[C@@H](CC(=O)O)C(=O)O)OC2=O [Example 1, N-((10-Carbamimidamido-13-oxo-6,7,8,13-tetrahydrodibenzo[b,f][1,4]dioxecin-4-yl)carbonyl)-L-aspartic acid] | 101% | –
9 | N=C(N)Nc1ccc2c(c1)CCCCc1cc3c(cc1OC2=O)OC[C@H]3CC(=O)N[C@@H](CC(=O)O)C(=O)O [Example 39, N-(((10S)-3-carbamimidamido-15-oxo-5,7,8,10,11,15-hexahydro-6H-12, 14-dioxabenzo[5,6]cyclodeca[1,2-f]inden-10-yl)acetyl)-L-aspartic acid] | 98% | –
10 | N=C(N)Nc1ccc2c(c1)CCCc1cc(C(=O)N[C@@H](CC(=O)O)C(=O)O)ccc1OC2=O [Example 73, N-((9-carbamimidamido-6-oxo-6,11,12,13-tetrahydro-dibenzo[b,g]oxonin-2-yl)carbonyl)-L-aspartic acid] | 100% | –
11 | N=C(N)Nc1ccc2c(c1)CCCCOc1c(CCC(=O)N[C@@H](CC(=O)O)C(=O)O)cccc1OC2=O [Example 44, N-(3-(11-Carbamimidamido-14-oxo-7,8,9,14-tetrahydro-6H-dibenzo[b,f][1,4]dioxacycloundecin-4-yl)propanoyl)-L-aspartic acid trifluoroacetate] | 96% | –
12 | N=C(N)Nc1ccc2c(c1)CCCOc1c(cccc1C(=O)N1CCC[C@H]1C(=O)N[C@@H](CC(=O)O)C(=O)O)OC2=O [Example 99, 1-((10-Carbamimidamido-13-oxo-6,7,8,13-tetrahydrodibenzo[b,f][1,4]dioxecin-4-yl)carbonyl)-L-prolyl-L-aspartic acid] | 100% | –
13 | N=C(N)Nc1ccc2c(c1)CCCOc1c(CCC(=O)NC(CC(=O)O)CC(=O)O)cccc1OC2=O [Example 96, 3-((3-(10-carbamimidamido-13-oxo-6,7,8,13-tetrahydro-dibenzo[b,f] [1,4]dioxecin-4-yl)propanoyl)amino) pentanedioic acid] | 101% | –
14 | N=C(N)Nc1ccc2c(c1)CCCOc1c(cccc1C(=O)N[C@@H](CC(N)=O)C(=O)O)OC2=O [Example 17, N^~2^~-((10-carbamimidamido-13-oxo-6,7,8,13-tetrahydro-dibenzo[b,f] [1,4]dioxecin-4-yl)carbonyl)-L-asparagine] | 100% | –
15 | N=C(N)Nc1ccc2c(c1)CCCOc1c(cccc1C(=O)NCCS(=O)(=O)O)OC2=O [Example 28, 2-(((10-carbamimidamido-13-oxo-6,7,8,13-tetrahydro-dibenzo[b,f] [1,4]dioxecin-4-yl)carbonyl)amino) ethanesulfonic acid] | 102% | –
16 | N=C(N)Nc1ccc2c(c1)CCCOc1c(cccc1C(=O)N(CC(=O)O)CC(=O)N(CC(=O)O)Cc1ccccc1)OC2=O [Example 140, N-((10-Carbamimidamido-13-oxo-6,7,8,13-tetrahydrodibenzo[b,f][1,4]dioxecin-4-yl)carbonyl)-N-(carboxymethyl)glycyl-N-benzylglycine] | 100% | –
17 | N=C(N)Nc1ccc2c(c1)CCCOc1c(cccc1C(=O)N(CC(=O)O)CC(=O)O)OC2=O [Example 14, 2,2′-(((10-carbamimidamido-13-oxo-6,7,8,13-tetrahydro-dibenzo[b,f] [1,4]dioxecin-4-yl)carbonyl)imino) diacetic acid] | 101% | –
18 | N=C(N)Nc1ccc2c(c1)CCCOc1c(ccc(CCC(=O)N(CC(=O)O)CC(=O)O)c1C(=O)O)OC2=O [Example 129, 3-(3-(bis(carboxy-methyl)amino)-3-oxopropyl)-10-carbamimidamido-13-oxo-6,7,8,13-tetrahydro-dibenzo[b,f] [1,4]dioxecine-4-carboxylic acid] | 100% | –
19 | N=C(N)Nc1ccc2c(c1)CCCCc1c(cccc1C(=O)N(CC(=O)O)Cc1cccc(C(=O)O)c1)OC2=O [Example 128] | 100% | –
20 | 4-((((10- carbamimidamido- 13-oxo-6,7,8,13- tetrahydro- dibenzo[b,f] [1,4]dioxecin-4- yl)carbonyl) carboxymethyl) amino)methyl) thiophene-2- carboxylic acid [Example 125] | – | 100%
21 | N=C(N)c1ccc2c(c1)CCc1c(CCC(=O)N[C@@H](CC(=O)O)C(=O)O)cccc1C(=O)O2 [Example 61, N-(3-(2-Carbamimidoyl-6-oxo-11,12-dihydro-6H-dibenzo[b,f]oxocin-10-yl)propanoyl)-L-aspartic acid trifluoroacetate] | 72% | –
22 | N=C(N)c1ccc2c(c1)CCc1cc(CCC(=O)N[C@@H](CC(=O)O)C(=O)O)ccc1C(=O)O2 [Example 60, N-(3-(2-carbamimidoyl-6-oxo-11,12-dihydro-6H-dibenzo[b,f]oxocin-9-yl)propanoyl)-L-aspartic acid] | 59% | –
23 | N=C(N)Nc1ccc2c(c1)CCc1cc(CCC(=O)N[C@@H](CC(=O)O)C(=O)O)ccc1OC2=O [Example 56, N-(3-(9-carbamimidamido-6-oxo-11,12-dihydro-6H-dibenzo[b,f]oxocin-2-yl)propanoyl)-L-aspartic acid] | 100% | –
24 | N=C(N)Nc1ccc2c(c1)CCCOc1ccccc1OC2=O [Example 68, 1-(13-Oxo-6,7,8,13-tetrahydrodibenzo[b,f][1,4]dioxecin-10-yl)guanidine trifluoroacetate] | 83% | –
